Results on three molecules are retold here after patent publication US20190000760A1, “NANOPARTICLE-AQUEOUS DISPERSION LIQUID OF GLYCOSPHINGOLIPID” (REGiMMUNE Corporation, priority 2015, published 2019).

The nature of the series: Average particle size and particle distribution by dynamic light scattering (Zetasizer Nano ZS). The series is classed as physicochemical. The note with it: for average particle size / particle distribution: DMSO as organic solvent. The method, then: (§1) KRN7000 was weighed in a test tube, 99.5% ethanol was added to adjust the concentration to 4 mg/mL, and the mixture was then heated to 76° C. to completely dissolve the KRN7000, so that a glycosphingolipid solution was obtained (the same applies for RCAI-56 or RCAI-61). On the other hand, inulin was weighed in a test tube, sterilized distilled water was added to adjust the concentration to 35 mg/mL, and the inulin was then completely dissolved to obtain an inulin solution. 50 μL of the glycosphingolipid solution was transferred to an additionally provided test tube, 950 μL of the inulin solution was added thereto, and quickly mixed by vortex, the mixture was left standing overnight at room temperature, and an equal amount of pure water was then added to reduce the concentration to ½. For the obtained dispersion solution, the average particle size and particle distribution were measured by a dynamic light scattering method (Zetasizer Nano ZS, Malvern). […] The final components of the glycosphingolipid hydrophilic protective colloidal solution obtained by this method, and the concentrations thereof are as follows: 0.1 mg/mL of glycosphingolipid, 17.5 mg/mL of inulin and 2.5% of ethanol.
as §1, with “pullulan” for “inulin”, “10” for “35”, “a pullulan” for “an inulin”, “glycosphingolipid” for “glycosphingolipid hydrophilic”, “5.0” for “17.5”
as §1, with “HPMC” for “inulin”, “1” for “35”, “a HPMC” for “an inulin”, “glycosphingolipid” for “glycosphingolipid hydrophilic”, “0.5” for “17.5”
Preparation of a hydrophobic colloidal solution of a glycosphingolipid using DMSO as an organic solvent was examined. KRN7000 was weighed in a test tube, DMSO was added to adjust the concentration to 2 mg/mL, and the mixture was heated to 85° C. to completely dissolve the KRN7000, so that a glycosphingolipid solution was obtained. […]

[1] abbreviates: inulin, 0.4 mg/mL glycosphingolipid, 28 mg/mL inulin, 20% DMSO.
Setting [2] is: Protective colloid: HPMC, 0.1 mg/mL glycosphingolipid, 0.5 mg/mL HPMC, 2.5% ethanol.
[3] abbreviates: Protective colloid: Inulin, 0.1 mg/mL glycosphingolipid, 17.5 mg/mL inulin, 2.5% ethanol.
[4] abbreviates: Protective colloid: None, glycosphingolipid dissolved in ethanol, mixed with water.
Where [5] appears, read: Protective colloid: Pullulan, 0.1 mg/mL glycosphingolipid, 5.0 mg/mL pullulan, 2.5% ethanol.

Consider `CCCCCCCCCCCCCCCCCCCCCCCCCC(=O)N[C@@H](CO[C@H]1O[C@H](CO)[C@H](O)[C@H](O)[C@H]1O)[C@H](O)[C@H](O)CCCCCCCCCCCCCC` [KRN7000, (2S,3S,4R)-1-O-(α-D-galactosyl)-N-hexacosanoyl-2-amino-1,3,4-octadecanetriol], for which the average particle size runs as follows: under setting [1], 345.5 nm; (protective colloid not used) “large average particle size”. Also, the particle distribution result was “monodispersed particles” under setting [1] and “polydispersed particles” (protective colloid not used). The “Average particle size (diameter, nm)” value under setting [2] worked out at 192 nm; the “Average particle size (diameter, nm)” value under setting [3] worked out at 156 nm; the “Average particle size (diameter, nm)” value under setting [4] is 1536 nm; the “Average particle size (diameter, nm)” value under setting [5] came to 149 nm. Moreover, the Particle size distribution entry was “Monodispersed” under setting [2], “Monodispersed” under setting [3], “Polydispersed” under setting [4] and “Monodispersed” under setting [5].

Consider `CCCCCCCCCCCCCCCCCCCCCCCCCC(=O)N[C@@H](CO[C@H]1CC(CO)[C@H](O)[C@H](O)C1O)[C@H](O)[C@H](O)CCCCCCCCCCCCCC` (stereo partly shown) [RCAI-56], for which the “Average particle size (diameter, nm)” value under setting [2] came to 380 nm; the “Average particle size (diameter, nm)” value under setting [3] is 169 nm; the “Average particle size (diameter, nm)” value under setting [4] is reported as 435 nm; the “Average particle size (diameter, nm)” value under setting [5] is recorded as 174 nm. Also, the Particle size distribution result is, setting by setting: under setting [2], “Monodispersed”; under setting [3], “Monodispersed”; under setting [4], “Polydispersed”; under setting [5], “Monodispersed”.

For `CCCCCCCCCCCCCCCCCCCCCCCCCC(=O)N[C@@H](CO[C@H]1O[C@H](COC)[C@H](O)[C@H](O)[C@H]1O)[C@H](O)[C@H](O)CCCCCCCCCCCCCC` [RCAI-61], the “Average particle size (diameter, nm)” value is 191 nm under setting [2], 298 nm under setting [3], 683 nm under setting [4] and 151 nm under setting [5]. Also, the Particle size distribution result by setting is: under setting [2], “Monodispersed”; under setting [3], “Monodispersed”; under setting [4], “Polydispersed”; under setting [5], “Monodispersed”.
